Data reported in EP4759807A1, “PROTEOLYSIS TARGETING CHIMERA COMPOUND FOR DEGRADING IRAK4 AND USE THEREOF” (Shenzhen Zhongge Biological Technology Co., Ltd., priority 2023, dated 2025).

Legend:
[1] = target: T1, IRAK4 (Homo sapiens, UniProt Q9NWZ3); assay: WB detection of proteolysis (Western Blot, THP-1 cells); format: cell-based
T1 sequence (Q9NWZ3 1-460): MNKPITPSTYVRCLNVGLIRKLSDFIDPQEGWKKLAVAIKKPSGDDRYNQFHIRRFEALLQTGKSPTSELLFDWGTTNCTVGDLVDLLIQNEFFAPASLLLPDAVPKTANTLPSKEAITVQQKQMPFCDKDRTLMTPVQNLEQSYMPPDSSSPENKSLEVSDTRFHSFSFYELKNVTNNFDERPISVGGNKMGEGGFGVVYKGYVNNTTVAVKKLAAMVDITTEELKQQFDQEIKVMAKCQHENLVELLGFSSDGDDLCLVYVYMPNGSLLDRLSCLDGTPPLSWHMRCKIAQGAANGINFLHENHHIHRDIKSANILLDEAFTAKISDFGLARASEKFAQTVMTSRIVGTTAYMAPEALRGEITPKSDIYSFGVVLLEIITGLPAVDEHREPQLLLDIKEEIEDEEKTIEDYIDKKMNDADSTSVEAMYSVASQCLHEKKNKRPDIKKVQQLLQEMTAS
Method: The degradation level of IRAK4 in THP-1 cells was detected by Western Blot technology. […] 1000X gradient dilution stock of the compound was prepared, with the highest concentration set at 300 µM. The dilution was carried out using DMSO in a 1:3 dilution factor, yielding a total of 9 concentrations. 1000X gradient dilutions of the compound were added to a 12-well plate, with 1 µL per well. Incubation was performed under conditions of 37°C and 5% CO2 for 24 h, and the cells were collected into 2 mL of centrifuge tubes and centrifuged at 5000 rpm for 5 min, and the supernatant was removed. 100 µL of RIPA lysis buffer (Beyotime, P0013C) was added and mixed uniformly, then the cells were lysed on ice for 10 min, centrifuged at 4°C at 14000 rpm for 10 min, and the supernatant was collected. Protein content was determined with BCA (Solarbio, PC0020-10*50T). 75 µL of the supernatant was taken, and 25 µL of NuPAGE LDS Sample Buffer (4X) (Thermo B0007) was added to each tube (5% β-mercaptoethanol was added before use) to prepare samples, and the samples were boiled in a metal bath at 100°C for 5 min. […] 1x NuPAGE™ MOPS SDS electrophoresis buffer (20X) (Invitrogen, NP0001) was prepared, and the electrophoresis instrument was set to a constant current of 300 mA for 100 min, and the protein was transferred to a PVDF membrane (Millipore, IPVH00010). […] The membrane was washed three times with 1x TBST (Elabscience E-BC-R335) the next day, each time for 5 min. […] The membrane was washed three times with TBST, each time for 5 min. The Odyssey imaging system Li-cor Odyssey CLx was used to detect signals and analyze data. GraphPad (Prism 9.3) software was used to perform analysis for data, and non-linear fitting (non-liner inhibitor (Bell-shaped)) and four parameters (4 parameter) were used, and the parameters was as follows: Span1 = Plateau1−Dip [formula] Span2 = Plateau2−Dip [formula] Section1 = Span1/(1+10^(∧)((LogEC50_1−X)*nH1)) [formula] Section2 = Span2/(1+10^(∧)((X−LogEC50_2)*nH2)) [formula]
The equation was as follows: Y=Dip+Section1+Section2.

[2] = target: T1, IRAK4; assay: Hibit fluorescence detection of proteolysis (IRAK4-HiBiT in HEK293T cells); format: cell-based; parameters: host or cells: HEK293T (ATCC); conditions: for Dmax: HEK-293T; for DC50: IRAK4-HiBiT, HEK293T cells, 24 h
Outline: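 Degradation read-out: luminescence from lytic HiBiT detection (15 min, room temperature) after 24 h compound exposure (37 °C, 5% CO2) of HEK293T cells transiently expressing IRAK4 fused to a HiBiT tag. Data fitted to a bell-shaped four-parameter model giving two EC50 values.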

[3] = Western Blot, THP-1 cells, 24 h, read-out: DC50
[4] = Western Blot, THP-1 cells, 24 h, read-out: Dmax

In the case of `C[C@H]1CN(c2ccn3ncc(-c4cn(-c5cn([C@H]6CC[C@H](CN7CCC8(CC7)CN(c7cccc9c7n(C)c(=O)n9C7CCC(=O)NC7=O)C8)CC6)nc5C(F)F)nn4)c3n2)CCO1` (stereo partly drawn) [Compound 178], the DC50 [1, 3] is reported as < 10 nM, the Dmax [1, 4] is reported as > 70% and the Dmax [2] is reported as > 80%. The DC50 ([2]; read-out: DC50) was < 0.5 nM.

With `C[C@H]1COCCN1c1ccn2ncc(-c3cn(-c4cn([C@H]5CC[C@H](CN6CCC7(CC6)CCN(c6cccc8c6n(C)c(=O)n8C6CCC(=O)NC6=O)C7)CC5)nc4C(F)F)nn3)c2n1` (stereo partly drawn) [Compound 204] the DC50 [1, 3] was < 10 nM, the Dmax [1, 4] was 60 to 70% and the Dmax [2] was 70 to 80%. For the same compound, the DC50 ([2]; read-out: DC50) was < 0.5 nM.

`C[C@H]1CN(c2ccn3ncc(-c4cn(-c5cn([C@H]6CC[C@H](CN7CCC(N8CCN(c9cccc%10c9n(C)c(=O)n%10C9CCC(=O)NC9=O)CC8)CC7)CC6)nc5C(F)F)nn4)c3n2)CCO1` (stereo partly drawn) [Compound 208] was tested, and the DC50 [1, 3] was < 10 nM, the Dmax [1, 4] was > 70% and the Dmax [2] was > 80%. The DC50 ([2]; read-out: DC50) was < 0.5 nM.

`Cn1c(=O)n(C2CCC(=O)NC2=O)c2cccc(N3CCC4(CCN(C[C@H]5CC[C@H](n6cc(-n7cc(-c8cnn9ccc(N%10CCC(C)(O)CC%10)nc89)nn7)c(C(F)F)n6)CC5)C4)CC3)c21` (stereo partly drawn) [Compound 238] was tested, and the DC50 [1, 3] was 10 to 30 nM, the Dmax [1, 4] was 60 to 70% and the Dmax [2] was > 80%. The DC50 ([2]; read-out: DC50) was < 0.5 nM.

With `Cn1c(=O)n(C2CCC(=O)NC2=O)c2cccc(N3CCN(C[C@H]4CC[C@H](n5cc(-n6cc(-c7cnn8ccc(N9CCOCC9)nc78)nn6)c(C(F)F)n5)CC4)CC3)c21` (stereo partly drawn) [Example 30] the DC50 [1, 3] was < 10 nM, the Dmax [1, 4] was < 60% and the Dmax [2] was > 80%. The DC50 [2] was < 0.5 nM.

With `Cn1c(=O)n(C2CCC(=O)NC2=O)c2cccc(N3CCC(N4CCN(C[C@H]5CC[C@H](n6cc(-n7cc(-c8cnn9ccc(N%10CCOCC%10)nc89)nn7)c(C(F)F)n6)CC5)CC4)CC3)c21` (stereo partly drawn) [Example 34] the DC50 [1, 3] was < 10 nM, the Dmax [1, 4] was 60 to 70% and the Dmax [2] was > 80%. The DC50 [2] was < 0.5 nM.

In the case of `Cn1c(=O)n(C2CCC(=O)NC2=O)c2cccc(N3CC4(CCN(C[C@H]5CC[C@H](n6cc(-n7cc(-c8ccc9cc(C(N)=O)cnn89)nn7)c(C(F)F)n6)CC5)CC4)C3)c21` (stereo partly drawn) [Example 35], the DC50 [1, 3] is reported as < 10 nM, the Dmax [1, 4] is reported as 60 to 70% and the Dmax [2] is reported as > 80%. The DC50 [2] was < 0.5 nM.

In the case of `Cn1c(=O)n(C2CCC(=O)NC2=O)c2cccc(N3CCC4(CCN(C[C@H]5CC[C@H](n6cc(-n7cc(-c8cnn9ccc(N%10CCOCC%10)nc89)nn7)c(C(F)F)n6)CC5)CC4)CC3)c21` (stereo partly drawn) [Example 36], the DC50 [1, 3] is reported as < 10 nM, the Dmax [1, 4] is reported as 60 to 70% and the Dmax [2] is reported as > 80%. The DC50 [2] was < 0.5 nM.

`Cn1c(=O)n(C2CCC(=O)NC2=O)c2cccc(N3CCC4(CCN(C[C@H]5CC[C@H](n6cc(-n7cc(-c8ccc9cc(C(N)=O)cnn89)nn7)c(C(F)F)n6)CC5)C4)CC3)c21` (stereo partly drawn) [Example 37] was tested, and the DC50 [1, 3] was < 10 nM, the Dmax [1, 4] was 60 to 70% and the Dmax [2] was > 80%. The DC50 [2] was < 0.5 nM.

For `Cn1c(=O)n(C2CCC(=O)NC2=O)c2cccc(N3CCC4(CCN(C[C@H]5CC[C@H](n6cc(-n7cc(-c8cnn9ccc(N%10CCOCC%10)nc89)nn7)c(C(F)F)n6)CC5)C4)CC3)c21` (stereo partly drawn) [Example 39, 3-(4-(2-(((1r,4r)-4-(3-(difluoromethyl)-4-(4-(5-morpholinopyrazolo[1,5-a]pyrimidin-3-yl)-1H-1,2,3-triazol-1-yl)-1H-pyrazol-1-yl)cyclohexyl)methyl)-2,8-diazaspiro[4.5]dec-8-yl)-3-methyl-2-oxo-2,3-dihydro-1H-benzo[d]imidazol-1-yl)piperidine-2,6-dione], the DC50 [1, 3] was < 10 nM, the Dmax [1, 4] was > 70% and the Dmax [2] was > 80%. For the same compound, the DC50 [2] was < 0.5 nM.

With `Cn1c(=O)n(C2CCC(=O)NC2=O)c2cccc(N[C@H]3CC[C@@H](N(C)C[C@H]4CC[C@H](n5cc(-n6cc(-c7cnn8ccc(N9CCOCC9)nc78)nn6)c(C(F)F)n5)CC4)CC3)c21` (stereo partly drawn) [Example 54] the DC50 [1, 3] was < 10 nM, the Dmax [1, 4] was 60 to 70% and the Dmax [2] was > 80%. The DC50 [2] was < 0.5 nM.

For `Cn1c(=O)n(C2CCC(=O)NC2=O)c2cccc(N[C@H]3CC[C@H](N(C)C[C@H]4CC[C@H](n5cc(-n6cc(-c7cnn8ccc(N9CCOCC9)nc78)nn6)c(C(F)F)n5)CC4)CC3)c21` (stereo partly drawn) [Example 55, 3-(4-(((1R,4r)-4-((((1r,4R)-4-(3-(difluoromethyl)-4-(4-(5-morpholinopyrazolo[1,5-a]pyrimidin-3-yl)-1H-1,2,3-triazol-1-yl)-1H-pyrazol-1-yl)cyclohexyl)methyl)(methyl)amino)cyclohexyl)amino)-3-methyl-2-oxo-2,3-dihydro-1H-benzo[d]imidazol-1-yl)piperidine-2,6-dione], the Dmax ([1]; THP-1) was < 60%, the DC50 ([1]; Western Blot, THP-1 cells, 24 h) was < 10 nM and the Dmax [2] was > 80%. The DC50 [2] was < 0.5 nM.

In the case of `C[C@H]1COCCN1c1ccn2ncc(-c3cn(-c4cn([C@H]5CC[C@H](CN6CCN(C7CCN(c8cccc9c8n(C)c(=O)n9C8CCC(=O)NC8=O)CC7)CC6)CC5)nc4C(F)F)nn3)c2n1` (stereo partly drawn) [Example 59], the DC50 [1, 3] is reported as < 10 nM, the Dmax [1, 4] is reported as > 70% and the Dmax [2] is reported as 70 to 80%. The DC50 [2] was < 0.5 nM.

In the case of `Cn1c(=O)n(C2CCC(=O)NC2=O)c2cccc(CN3CC4(CCC(CN[C@H]5CC[C@H](n6cc(-n7cc(-c8ccc9cc(C(N)=O)cnn89)nn7)c(C(F)F)n6)CC5)CC4)C3)c21` (stereo partly drawn) [Example 60], the DC50 [1, 3] is reported as 10 to 30 nM, the Dmax [1, 4] is reported as > 70% and the Dmax [2] is reported as > 80%. The DC50 [2] was 1 to 5 nM.

In the case of `Cn1c(=O)n(C2CCC(=O)NC2=O)c2cccc(N[C@H]3CC[C@H](N(C)C[C@H]4CC[C@H](n5cc(-n6cc(-c7ccc8cc(C(N)=O)cnn78)nn6)c(C(F)F)n5)CC4)CC3)c21` (stereo partly drawn) [Example 61, 7-(1-(3-(difluoromethyl)-1-((1R,4r)-4-((((1r,4R)-4-((1-(2,6-dioxopiperidin-3-yl)-3-methyl-2-oxo-2,3-dihydro-1H-benzo[d]imidazol-4-yl)amino)cyclohexyl)(methyl)amino)methyl)cyclohexyl)-1H-pyrazol-4-yl)-1H - 1,2,3-triazol-4-yl)pyrrolo[1,2-b]pyridazine-3-carboxamide], the DC50 [1, 3] is reported as < 10 nM, the Dmax [1, 4] is reported as 60 to 70% and the Dmax [2] is reported as > 80%. The DC50 [2] was < 0.5 nM.

For `Cn1c(=O)n(C2CCC(=O)NC2=O)c2cccc(N3CCC4(CCN(C[C@H]5CC[C@H](n6cc(-n7cc(-c8ccc9cc(C(N)=O)cnn89)nn7)c(C(F)F)n6)CC5)CC4)C3)c21` (stereo partly drawn) [Example 62, 7-(1-(3-(difluoromethyl)-1-((1r,4r)-4-((2-(1-(2,6-dioxopiperidin-3-yl)-3-methyl-2-oxo-2,3-dihydro-1H-benzo[d]imidazol-4-yl)-2,8-diazaspiro[4.5]dec-8-yl)methyl)cyclohexyl)-1H-pyrazol-4-yl)-1H-pyrazol-1,2,3-triazol-4yl)pyrrolo[1,2-b]pyridazine-3-carboxamide], the DC50 [1, 3] was < 10 nM, the Dmax [1, 4] was > 70% and the Dmax [2] was > 80%. For the same compound, the DC50 [2] was < 0.5 nM.

`Cn1c(=O)n(C2CCC(=O)NC2=O)c2cccc(N3CCC(N4CCN(C[C@H]5CC[C@H](n6cc(-n7cc(-c8cnn9ccc(N%10CCC[C@H](O)C%10)nc89)nn7)c(C(F)F)n6)CC5)CC4)[C@@H](F)C3)c21` (stereo partly drawn) [Example 297, 3-(4-((3S)-4-(4-(((1R,4S)-4-(3-(difluoromethyl)-4-(4-(5-((S)-3-hydroxypiperidin-1-yl)pyrazolo[1,5-a]pyrimidin-3-yl)-1H-1,2,3-triazol-1-yl)-1H-pyrazol-1-yl)cyclohexyl)methyl)piperazin-1-yl)-3-fluoropiperidin-1-yl)-3-methyl-2-oxo-2,3-dihydro-1H-benzo[d]imidazol-1-yl)piperidine-2,6-dione] was tested, and the DC50 [1, 3] was < 10 nM and the Dmax [1, 4] was > 70%.
